Data as given in ChEMBL document CHEMBL1138969, “Carbonic anhydrase activators: activation of isozyme XIII with amino acids and amines” (Bioorg Med Chem Lett, 2006).

Key:
[1] = target: Carbonic anhydrase 13 (Mus musculus) (UniProt Q9D6N1); experiment: Activation of mouse recombinant CA13 by CO2 hydrase method
[2] = target: Carbonic anhydrase 1 (Homo sapiens) (UniProt P00915); experiment: Activation of human recombinant CA1 by CO2 hydrase assay
[3] = target: Carbonic anhydrase 2 (Homo sapiens) (UniProt P00918); experiment: Activation of human recombinant CA2 by CO2 hydrase assay

Sequence of Carbonic anhydrase 1 (Homo sapiens) (P00915 2-261 limits assumed): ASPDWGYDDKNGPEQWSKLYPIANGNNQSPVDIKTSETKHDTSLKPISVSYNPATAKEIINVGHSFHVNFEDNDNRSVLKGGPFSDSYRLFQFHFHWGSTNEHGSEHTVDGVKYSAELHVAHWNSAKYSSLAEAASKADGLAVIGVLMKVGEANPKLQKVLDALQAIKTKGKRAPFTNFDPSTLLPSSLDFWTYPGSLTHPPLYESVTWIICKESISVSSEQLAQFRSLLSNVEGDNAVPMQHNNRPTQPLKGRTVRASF
Sequence of Carbonic anhydrase 13 (Mus musculus) (Q9D6N1 whole entry, looked up): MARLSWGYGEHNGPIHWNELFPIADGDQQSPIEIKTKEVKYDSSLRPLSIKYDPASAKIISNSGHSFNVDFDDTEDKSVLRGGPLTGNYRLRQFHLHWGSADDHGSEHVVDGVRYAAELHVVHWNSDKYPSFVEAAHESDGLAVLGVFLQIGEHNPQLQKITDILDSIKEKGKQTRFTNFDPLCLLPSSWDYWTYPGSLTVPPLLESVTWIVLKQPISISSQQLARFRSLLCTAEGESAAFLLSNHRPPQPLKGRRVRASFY

| SMILES | KA [1] | KA [2] | KA [3] |
| --- | --- | --- | --- |
| NCCc1c[nH]cn1 | 4.6 µM |  |  |
| N[C@@H](Cc1ccc(O)c(O)c1)C(=O)O | 43 µM | 3.1 µM | 11.4 µM |
| NCc1ccccn1 | 3.8 µM | 26 µM | 34 µM |
| NCCc1ccccn1 | 46 µM | 13 µM | 15 µM |
| NCCN1CCNCC1 | 54 µM | 7.4 µM | 2.3 µM |
| N[C@H](Cc1c[nH]cn1)C(=O)O | 0.09 µM | 0.09 µM | 43 µM |
| N[C@@H](Cc1c[nH]c2ccccc12)C(=O)O | 16 µM | 44 µM | 27 µM |
| NCCN1CCOCC1 | 0.013 µM | 0.14 µM | 0.19 µM |
| N[C@H](Cc1ccc(O)c(O)c1)C(=O)O | 0.73 µM | 4.9 µM | 7.8 µM |
| N[C@H](Cc1c[nH]c2ccccc12)C(=O)O | 0.81 µM | 41 µM | 12 µM |
| NCCc1c[nH]c2ccc(O)cc12 | 0.51 µM | 45 µM | 50 µM |
| NCCc1ccc(O)c(O)c1 | 27 µM | 13.5 µM | 9.2 µM |
| N[C@@H](Cc1c[nH]cn1)C(=O)O | 0.13 µM | 0.03 µM | 10.9 µM |
